Reference: patent US20100016574A1, “2'-Hydroxyl Group-Modified Ribonucleoside Derivatives” (Tokyo Institute of Technology, priority 2006, published 2010)

Experiment: Stability / elimination of the 2′-modifying group with tetrabutylammonium fluoride (TLC analysis)
Format: physicochemical
Details: room temperature
Procedure: To the compound (4 mg, 0.01 mmol) synthesized in Example 8 were added 1M tetrabutylammonium fluoride/THF (1 mL), and the reaction was carried out at room temperature for 6 days. […] The compound was thus stable.
To the compound (4 mg, 0.01 mmol) synthesized in Example 5 was added 1 M tetrabutylammonium fluoride/THF (1 mL) for a reaction at room temperature for 10 minutes.
To the compound (6 mg, 0.01 mmol) synthesized in Example 16 was added 1 M tetrabutylammonium fluoride/THF (1 mL), followed by a reaction at room temperature for 2 hours.

Question: For CNC(=O)CCO[C@@H]1[C@H](O)[C@@H](COC(c2ccccc2)(c2ccc(OC)cc2)c2ccc(OC)cc2)O[C@H]1n1ccc(=O)[nH]c1=O [Example 8, 5′-O-(4,4′-Dimethoxytrityl)-2′-O-[2-(N-methylcarbamoyl)ethyl]uridine], which “Stability of 2-(N-methylcarbamoyl)ethyl group to tetrabutylammonium fluoride” value (1M tetrabutylammonium fluoride/THF, 6 days) is on record?
Answer: No degradation was observed

Question: Which “Elimination of 2-methoxycarbonyl group with tetrabutylammonium fluoride” value (1 M tetrabutylammonium fluoride/THF, 10 minutes) does the source give for COC(=O)CCO[C@@H]1[C@H](O)[C@@H](CO)O[C@H]1n1ccc(=O)[nH]c1=O [Example 5, 2′-O-[2-(Methoxycarbonyl)ethyl]uridine] here?
Answer: Complete conversion to uridine

Question: Which “Elimination of 2-(N,N-dimethylcarbamoylethyl) group with tetrabutylammonium fluoride” value (1 M tetrabutylammonium fluoride/THF, 2 hours) does the source give for COc1ccc(C(OC[C@H]2O[C@@H](n3ccc(=O)[nH]c3=O)[C@H](OCCC(=O)N(C)C)[C@@H]2O)(c2ccccc2)c2ccc(OC)cc2)cc1 [Example 16, 5′-O-(4,4′-Dimethoxytrityl)-2′-O-[2-(N,N-dimethylcarbamoyl)ethyl]uridine] here?
Answer: Complete conversion to 5′-O-dimethoxytrityl uridine
